From patent publication US6227295A, “High temperature hydraulic fracturing fluid” (Schlumberger Technology Corporation, priority 1999, dated 2001)
Where “and” joins values, the source holds several entries; their conditions need not be identical. Identical values can stand only once. Like-named read-outs stand apart in the source and are kept apart here.

Experiments:
[1] = pH of organic amine stabilizers (Table 1, mostly determined experimentally); format: physicochemical; conditions: pH in water, some from the literature
Description: The fluid also comprises an organic amine stabilizing agent that has a first pKa or a pH in water of at least about 9.5. The organic amine preferably has from 1-20 carbon atoms, more preferably 1-10 carbon atoms. In one particularly preferred embodiment, the organic amine has the formula: […]
Table 1 below lists a number of organic amines that can be used as stabilizers in the present invention. The pKa values in the table are from the literature; the pH values in the table were mostly determined experimentally, although some were taken from the literature.

[2] = Typical pH of fracturing fluid with TEPA as the stabilizer; format: physicochemical; conditions: TEPA used as the stabilizer
Description: where R1 is C1 -C4 alkyl and n is from 1-6. Preferably R1 is ethylene and n is 4. This preferred amine, tetraethylenepentamine (TEPA), is available from Dow Chemical.

[3] = Viscosity retention of CMHPG linear gels after aging at 325° F. (Example 1, Table 2); format: physicochemical; conditions: TEPA 5 gpt, no secondary additive
Protocol: Aqueous polymer solutions were aged in an air oven at elevated temperatures, and their viscosity was measured before and after the aging. […] The base gels were made in 1 liter quantities, and stored in Nalgene-type plastic bottles. The viscosity of each batch of base gel was measured at 70° F. on a Contraves LS-30 viscometer to establish the baseline for that batch.

[4] = cited from earlier work

Compound	pH [1]	pKa [4]	further results
NCCNCCNCCNCCN [tetraethylenepentamine]	11.29	–	pH of the fluid [2]: about 10.8; % of initial viscosity after 2 hrs. ([3]; 325° F.): 93% and 63%; pH (Comments) [3]: 11.50
CCN(O)CC [DHA, N,N-diethylhydroxylamine]	11.06	–	–
NCCCOCCOCCCN [NDPA-10, di-(gamma-aminopropylether) of ethylene glycol]	11.58	–	–
NCCN [ethylenediamine]	–	10.7	pKa ([4]; second value): 7.6
NCCCOCCCCOCCCN [NDPA-12, di-(gamma-aminopropylether) of 1,4-butane diol]	11.55	–	–
NCCCNCCNCCCN [BAPED, N,N'-bis(3-aminopropyl)ethylene-diamine]	11.72	–	–
NCCCCCCN [hexamethylenediamine]	–	11.9	–
CC(COCCCN)COCCCN [DPA-12, di-(gamma-aminopropylether) of 2-methyl-1,3-propane diol]	11.41	–	–
NCCCN [1,3-diaminopropane]	–	10.9	pKa ([4]; second value): 9.0
CCCCN [n-butylamine]	–	10.8	–
NCCNCCN [diethylenetriamine]	11.42	–	–
NCCN(CCN)CCN [TAA, tris-(2-aminoethyl)amine]	11.25	–	–
NCCCCN [1,4-diaminobutane]	–	11.2	pKa ([4]; second value): 9.7
CCCCCCCCCCCCN [DDA, dodecylamine]	10.22	–	–
NCCCCN [tetramethylenediamine]	–	10.7	–
CCCCCCCCCCN [n-decylamine]	–	10.6	–
CC(N)CN (stereo not drawn) [1,2-diaminopropane]	–	9.8	pKa ([4]; second value): 6.6
